13 compounds from patent US4390540A, “Imidazoquinazolines having pharmaceutical activity” (Hoffmann-La Roche Inc., priority 1980, dated 1983) can be followed below.

One data set relates to heart frequency. The data set can be described thus: Heart frequency (tachycardia) in conscious sheep dogs. The conditions noted are these: oral. The data set is classed as in vivo. The procedure:
(§1) The positive inotropic activity was measured after the oral administration of the test substances to conscious sheep dogs. For this purpose, the animals are provided with an implanted pressure-telemetry system, whereby the pressure receiver is fixed in the left ventricle. The left ventricular pressure is sent from the animal via the implanted radio transmitter and received via a suitable antenna and receiving system, demodulated and amplified. By differentiation of the ascending side of the left ventricular pressure (LVP), there is calculated the maximum pressure increase rate (dLVP/dtmax) which represents the contractility parameter. Simultaneously, the heart frequency is recorded via a cardiotachograph. Under inotropy there are indicated the percentage variation (Δ%) of dLVP/dtmax and the duration of activity in hours (Hrs.). Under tachycardia there are indicated the percentage variations of the heart frequency (Δ%) after administration of the test substance and the duration of activity in hours (Hrs.).

In data set [1] the test system is left ventricular pressure (LVP). Briefly: Positive inotropic activity (dLVP/dtmax) in conscious sheep dogs. The data set is classed as in vivo. As to conditions: oral; for change in vivo at 10 mg/kg / change in vivo at 1 mg/kg / change in vivo at 3 mg/kg: Canis lupus familiaris, read-out: Inotropy Δ% (percentage variation of dLVP/dtmax). Here is the method:
as §1

For data set [2], the system named is Human platelet-rich plasma. The data set can be described thus: Collagen-induced blood platelet aggregation (aggregometer method of Born). The data set is classed as cell-based. As to conditions: 10 min; human platelet-rich citrate plasma, 37° C., 10 minutes incubation, collagen fibrils; read-out: EC50 (collagen-induced blood platelet aggregation, maximum aggregation velocity). Here is the method:
The maximum aggregation velocity was taken as the test parameter, and the effective concentration (EC50) was ascertained from dosage-activity curves. Human platelet-rich plasma was obtained by centrifugation from citrated venous blood. The experiments were carried out with suspensions of the test substances in 0.9% sodium chloride. 0.18 ml of citrate plasma was treated with a 10 μl suspension of the test compounds and incubated at 37° C. for 10 minutes, whereupon the aggregation was initiated by the addition of 10 μl of a suspension of collagen fibrils.

For another data set, the system named is gastric acid secretion. Briefly: Gastric acid secretion inhibition in pylorus-ligated rats (Shay). The data set is classed as in vivo. As to conditions: Rattus norvegicus, intraduodenally, female rats, 4 hours. The procedure: The experimental procedure described hereinafter was used to determine the gastric acid secretion-inhibiting activity. More specifically, the pylorus of female rats, which had received no food for 24 hours, but which had received water ad libitum, is ligatured under slight ether narcosis in accordance with Shay et al. [Gastroenterology 5, 43 (1945)]. Immediately thereafter the substance to be tested is administered intraduodenally to the animals. Four hous later the animals are killed, the volume and the acidity of their gastric juice are determined and the values obtained are compared with those of control animals which were treated similarly, but which received no test substance. The ED 50 is that dosage of test substance which brings about a 50% decrease in volume (ED 50 volume) or acidity (ED 50 acidity) of the gastric juice in the treated animals compared with the control animals.

SMILES strings stand for the structures. Like-named read-outs stand apart in the source and are kept apart here.

Regarding `Cc1ccc2c(c1C)CNC1=NC(=O)CN12.Cl` [6,7-dimethyl-4,5-dihydroimidazo[1,2-a]quinazolin-2(1H)-one hydrochloride], in the data set on heart frequency (10 mg/kg), the “Heart frequency Hrs. (duration of activity)” value is 6 h and the “Heart frequency Δ% (percentage variation)” value was “+3%”. For the same compound, in data set [1] (10 mg/kg), the “Inotropy Hrs (duration of activity)” value turned out to be 6 h and the change in vivo at 10 mg/kg is 18%.
Take `COc1ccc2c(c1Cl)CNC1=NC(=O)CN12.Cl` [6-chloro-7-methoxy-4,5-dihydroimidazo[1,2-a]quinazolin-2(1H)-one hydrochloride]: in the data set on heart frequency (1 mg/kg), the “Heart frequency Hrs. (duration of activity)” value is 5 h and the “Heart frequency Δ% (percentage variation)” value is given as “+47%”. Further, in the data set on heart frequency (3 mg/kg), the “Heart frequency Hrs. (duration of activity)” value came out at 6 h and the “Heart frequency Δ% (percentage variation)” value is “+20%”. Also, in the data set with heart frequency (10 mg/kg), the “Heart frequency Hrs. (duration of activity)” value stood at 7 h and the “Heart frequency Δ% (percentage variation)” value is on record as “+45%”. In data set [1] (1 mg/kg), the “Inotropy Hrs (duration of activity)” value was 1 h and the change in vivo at 1 mg/kg was found to be 10%. For the same compound, in data set [1] (3 mg/kg), the “Inotropy Hrs (duration of activity)” value is 7 h and the change in vivo at 3 mg/kg came out at 32%. Also, in data set [1] (10 mg/kg), the “Inotropy Hrs (duration of activity)” value was found to be 7 h and the change in vivo at 10 mg/kg is 60%.
For `Cc1cccc2c1CNC1=NC(=O)CN12.Cl` [6-methyl-4,5-dihydroimidazo[1,2-a]quinazolin-2(1H)-one hydrochloride], in the data set on heart frequency (1 mg/kg), the “Heart frequency Hrs. (duration of activity)” value was determined as 3.5 h and the “Heart frequency Δ% (percentage variation)” value was -7%. In the data set on heart frequency (3 mg/kg), the “Heart frequency Hrs. (duration of activity)” value is 5 h and the “Heart frequency Δ% (percentage variation)” value is reported as -12%. Further, in data set [1] (1 mg/kg), the “Inotropy Hrs (duration of activity)” value was found to be 2 h and the change in vivo at 1 mg/kg was determined as 15%. Also, in data set [1] (3 mg/kg), the “Inotropy Hrs (duration of activity)” value is 4.5 h and the change in vivo at 3 mg/kg is 32%.
Take `COc1ccc2c(c1)CNC1=NC(=O)CN12.Cl` [7-methoxy-4,5-dihydroimidazo[1,2-a]quinazolin-2(1H)-one hydrochloride]: in the data set on heart frequency (10 mg/kg), the “Heart frequency Hrs. (duration of activity)” value is 6.5 h and the “Heart frequency Δ% (percentage variation)” value is listed as “+50%”. Also, in data set [1] (10 mg/kg), the “Inotropy Hrs (duration of activity)” value was 7 h and the change in vivo at 10 mg/kg was found to be 67%.
`Cc1c(Cl)ccc2c1CNC1=NC(=O)CN12.Cl` [7-chloro-6-methyl-4,5-dihydroimidazo[1,2-a]quinazolin-2(1H)-one hydrochloride]: the “Heart frequency Hrs. (duration of activity)” value in the data set on heart frequency (1 mg/kg) was 5 h; with heart frequency (3 mg/kg), 3 h; in the data set with heart frequency (10 mg/kg), 6 h. Besides, the “Heart frequency Δ% (percentage variation)” value in the data set on heart frequency (1 mg/kg) is “+4%”; in the data set with heart frequency (3 mg/kg), “+6%”; with heart frequency (10 mg/kg), “+31%”. For the same compound, the “Inotropy Hrs (duration of activity)” value in data set [1] (1 mg/kg) was 6 h; in data set [1] (3 mg/kg) it was 1 h; in data set [1] (10 mg/kg) it was 6 h. Further, in data set [1] (1 mg/kg), the change in vivo at 1 mg/kg was 27%. For the same compound, the change in vivo at 3 mg/kg in data set [1] (3 mg/kg) amounted to 7%. Besides, the change in vivo at 10 mg/kg in data set [1] (10 mg/kg) worked out at 50%.
As for `Cc1cccc2c1N1CC(=O)N=C1NC2.Cl` [9-methyl-4,5-dihydroimidazo[1,2-a]quinazolin-2(1H)-one hydrochloride], in the data set with heart frequency (1 mg/kg), the “Heart frequency Hrs. (duration of activity)” value is 5.5 h and the “Heart frequency Δ% (percentage variation)” value is recorded as -19%. Further, in the data set on heart frequency (3 mg/kg), the “Heart frequency Hrs. (duration of activity)” value was 6 h and the “Heart frequency Δ% (percentage variation)” value is reported as -8%. For the same compound, in data set [1] (1 mg/kg), the “Inotropy Hrs (duration of activity)” value was determined as 2.5 h and the change in vivo at 1 mg/kg was found to be 27%. Moreover, in data set [1] (3 mg/kg), the “Inotropy Hrs (duration of activity)” value stood at 6.5 h and the change in vivo at 3 mg/kg turned out to be 18%.
Consider `CC1C(=O)N=C2NCc3c(ccc(Cl)c3Cl)N21.Cl` (stereo not shown) [6,7-dichloro-1-methyl-4,5-dihydroimidazo[1,2-a]quinazolin-2(1H)-one hydrochloride], for which, in the data set on heart frequency (3 mg/kg), the “Heart frequency Hrs. (duration of activity)” value was determined as 8 h and the “Heart frequency Δ% (percentage variation)” value was “+16%”. In data set [1] (3 mg/kg), the “Inotropy Hrs (duration of activity)” value was 8 h and the change in vivo at 3 mg/kg was found to be 48%.
By EC50 is commonly meant the midpoint of the concentration-response curve. `Cc1c(Br)ccc2c1CNC1=NC(=O)CN12.Cl` [7-bromo-6-methyl-4,5-dihydroimidazo[1,2-a]quinazolin-2(1H)-one hydrochloride]: in the data set with heart frequency (1 mg/kg), the “Heart frequency Hrs. (duration of activity)” value was determined as 4 h and the “Heart frequency Δ% (percentage variation)” value is “+10%”. Further, in the data set on heart frequency (3 mg/kg), the “Heart frequency Hrs. (duration of activity)” value is 4 h and the “Heart frequency Δ% (percentage variation)” value turned out to be 0%. In addition, in the data set on heart frequency (10 mg/kg), the “Heart frequency Hrs. (duration of activity)” value came to 8 h and the “Heart frequency Δ% (percentage variation)” value is “+59%”. Further, in data set [2], the concentration for a half-maximal effect (EC50) was found to be 35 µM. Further, in data set [1] (1 mg/kg), the “Inotropy Hrs (duration of activity)” value came out at 2.5 h and the change in vivo at 1 mg/kg worked out at 8%. Besides, in data set [1] (3 mg/kg), the “Inotropy Hrs (duration of activity)” value was determined as 5.5 h and the change in vivo at 3 mg/kg was determined as 16%. Also, in data set [1] (10 mg/kg), the “Inotropy Hrs (duration of activity)” value was 8 h and the change in vivo at 10 mg/kg amounted to 120%.
`Cc1ccc2c(c1)CNC1=NC(=O)CN12.Cl` [7-methyl-4,5-dihydroimidazo[1,2-a]quinazolin-2(1H)-one hydrochloride]: in the data set with heart frequency (3 mg/kg), the “Heart frequency Hrs. (duration of activity)” value is 1 h and the “Heart frequency Δ% (percentage variation)” value is recorded as “+6%”. For the same compound, in data set [1] (3 mg/kg), the “Inotropy Hrs (duration of activity)” value was determined as 2 h and the change in vivo at 3 mg/kg came to 33%.
For the compound `Cl.O=C1CN2C(=N1)NCc1cc(Cl)ccc12` [7-chloro-4,5-dihydroimidazo[1,2-a]quinazolin-2(1H)-one hydrochloride], in the data set with heart frequency (10 mg/kg), the “Heart frequency Hrs. (duration of activity)” value came out at 3 h and the “Heart frequency Δ% (percentage variation)” value is recorded as “+13%”. For the same compound, in data set [1] (10 mg/kg), the “Inotropy Hrs (duration of activity)” value is 3.5 h and the change in vivo at 10 mg/kg was found to be 17%.
Regarding `Cl.O=C1CN2C(=N1)NCc1c2ccc(Cl)c1Cl` [6,7-dichloro-4,5-dihydroimidazo[1,2-a]quinazolin-2(1H)-one hydrochloride], in the data set with heart frequency (1 mg/kg), the “Heart frequency Hrs. (duration of activity)” value is 7 h and the “Heart frequency Δ% (percentage variation)” value is listed as “+22%”. For the same compound, in data set [1] (1 mg/kg), the “Inotropy Hrs (duration of activity)” value was 7.5 h and the change in vivo at 1 mg/kg is 44%.
Consider `Cl.O=C1CN2C(=N1)NCc1ccccc12` [4,5-dihydroimidazo[1,2-a]quinazolin-2(1H)-one hydrochloride], for which, in the data set with heart frequency (3 mg/kg), the “Heart frequency Hrs. (duration of activity)” value is 2.5 h and the “Heart frequency Δ% (percentage variation)” value was “+4%”. For the same compound, in data set [1] (3 mg/kg), the “Inotropy Hrs (duration of activity)” value is 4 h and the change in vivo at 3 mg/kg came to 79%.
`Cl.O=C1CN2C(=N1)NCc1c(Cl)cccc12` [6-chloro-4,5-dihydroimidazo[1,2-a]quinazolin-2(1H)-one hydrochloride]: in the data set on heart frequency (10 mg/kg), the “Heart frequency Hrs. (duration of activity)” value came out at 6 h and the “Heart frequency Δ% (percentage variation)” value is “+77%”. Moreover, the EC50 in data set [2] came to 12.3 µM. In data set [1] (10 mg/kg), the “Inotropy Hrs (duration of activity)” value stood at 7 h and the change in vivo at 10 mg/kg turned out to be 78%. In the data set on gastric acid secretion (read-out: ED 50 acidity (50% decrease in acidity of the gastric juice)), the ED50 is 10 mg/kg. In the data set with gastric acid secretion (read-out: ED 50 volume (50% decrease in volume of the gastric juice)), the ED50 worked out at 15 mg/kg.
